Laboratory results reported in US20160115225A1, “Methods of Reducing Methylglyoxal (MGO) Modification of Recombinant Proteins in Cell Culture” (AbbVie Inc., priority 2014, published 2016).

Key:
[1] = test system: adalimumab producing cell line 2; assay: Glucose consumption of the culture, cell line 2; format: cell-based; conditions: Example 4
Protocol: For the bioreactor (3 L Applikon) experiments (Examples 1, 2 and 3), 3 L, bioreactors (1.5 L working volume) were initiated at 35° C. (cell line 1) and 36° C. (cell line 2), 30% DO, 200 rpm, pH of 7.1. In some of the conditions, pH was ramped down to 6.8 in three days and kept at pH 6.8 thereafter. The inclusion of pH ramp for a particular condition is indicated by the final pH in the experimental design. If the final pH is 7.1, then it indicates no pH ramp was performed, whereas if the final pH is 6.8, a pH ramp was performed on day 3 from pH 7.1 to pH 6.8. In some of the conditions, a temperature shift was performed. When temperature shift was performed, the temperature was lowered to 33° C. Again, the conditions where such a temperature shift was performed can be identified from the final temperature in the experimental design. Cultures were run in extended batch mode with the addition of a desired amount of 40% glucose stock solution was fed based on glucose measurements.
The objective of this experiment was to further evaluate the control of MGO synthesis/MGO protein modification through reduced glucose consumption in a different cell line, Cell line 2. […] As described in Example 3, extracellular MGO quantification was performed for day 7, 8 and 9 for the samples below and percentage of acidic species were quantified using WCX-10 analysis post protein A of cell culture harvests. […]

[2] = test system: adalimumab producing cell line 2; assay: WCX-10 quantification of acidic species of adalimumab, bioreactor culture, cell line 2; format: cell-based; conditions: Example 4; 0.15 g/l 2DDG; control 29.8%
Protocol: Two adalimumab producing cell lines were employed in the studies covered here. Upon thaw, cells were cultured in their respective growth media in a combination of vented non-baffled shake flasks (Corning) on a shaker platform at 110 RPM (cell line 1) and 140 RPM (cell line 2) and 10 L or 20 L wave bags (GE). Cultures were propagated in a 35° C., 5% CO2 incubator for cell line 1 and 36° C., 5% CO2 incubator for cell line 2 to obtain the required number of cells to be able to initiate production stage cultures.
For the bioreactor (3 L Applikon) experiments (Examples 1, 2 and 3), 3 L, bioreactors (1.5 L working volume) were initiated at 35° C. (cell line 1) and 36° C. (cell line 2), 30% DO, 200 rpm, pH of 7.1. […]
This method is employed towards the quantification of the acidic species and other charge variants present in cell culture harvest samples. […]
Quantitation is based on the relative area percent of detected peaks. […]
The objective of this experiment was to further evaluate the control of MGO synthesis/MGO protein modification through reduced glucose consumption in a different cell line, Cell line 2. […] As described in Example 3, extracellular MGO quantification was performed for day 7, 8 and 9 for the samples below and percentage of acidic species were quantified using WCX-10 analysis post protein A of cell culture harvests.

Structure (SMILES): O=CC[C@@H](O)[C@H](O)[C@H](O)CO [Test 2DDG, 2-Deoxy-D-Glucose]
- glucose consumption rate ([1]; 0.05 g/l 2DDG, compared to control): not significantly lower
- glucose consumption ([1]; 0.15 g/l 2DDG): reduction
- percentage of acidic species [2]: 27.2%
